Experimental data: patent publication US10973880B2, “Compositions and methods for treating pulmonary hypertension” (Acceleron Pharma Inc., priority 2016, dated 2021)

How the values were obtained:
[1] = test system: rat model of pulmonary arterial hypertension (PAH), monocrotaline (MCT) induced; experiment: monocrotaline rat model of pulmonary arterial hypertension; type: in vivo, Sprague Dawley rats
Experimental: The effects of an ActRIIA-mFc fusion protein (ActRIIA-mFc homodimer as described in Example 1), an ALK4-Fc-ActRIIB-Fc heterodimer (as described in Examples 12 and 13), and sildenafil (a phosphodiesterase-5 inhibitor approved for the treatment of PAH) were examined in a rat model of pulmonary arterial hypertension (PAH). In this model, Sprague Dawley rats received a […] injection of monocrotaline (MCT) to induce PAH 24 hours prior to start of therapy.
Rats were separated into different treatment groups (10 mice per group): 1) treatment with MCT (60 mg/kg administered i.p. as a single dose at day 1 of study) and Tris buffered saline (i.p. as 1 ml/kg, every three days) (vehicle treatment group), 2) treatment with an ActRIIA-mFc polypeptide (10 mg/kg administered i.p. every three days) and MCT (60 mg/kg administered i.p. as a single dose at day 1 of study), 3) treatment with an ALK4-Fc:ActRIIB-Fc heterodimer (10 mg/kg administered i.p. every three days) and MCT (60 mg/kg administered i.p. as a single dose at day 1 of study), 4) treatment with sildenafil (30 mg/kg administered orally twice daily) and MCT (60 mg/kg administered i.p. as a single dose at day 1 of study), and 5) control rats (Tris buffered saline administered i.p. as 1 ml/kg, every three days). Rats were treated for 28 days. Body weights were recorded prior to first dose on Day 1 and then weekly throughout the study.
On day 28, rats were anesthetized by an intraperitoneal injection of ketamine/xylazine (80/10 mg/kg). An incision was made in the neck, and a jugular vein was isolated and ligated anteriorly. A fluid-filled pressure catheter was introduced into the right jugular vein to measure pulmonary artery pressure (PAP). Another incision was made in the inguinal region, and femoral artery was isolated and ligated anteriorly. A Millar pressure catheter was introduced into a femoral artery to measure systolic arterial pressure, diastolic pressure, and heart rate. Mean arterial pressure and right PAP were monitored using the Notocord HEM (Croissy sur Seine, Frnace) v3.5 data capture system for approximately 5-10 minutes until stable measurements were obtained. During the measurements, rats were maintained at approximately 37° C. on a heating pad and body temperature was monitored throughout the procedure with a rectal temperature probe. At the conclusion of the procedure, rats were euthanized, and the hearts and lungs were removed. The entire heart was weighed. Next, the atria were removed and the left ventricle with septum (LV+S) was separated from the right ventricle (RV). The ventricles were weighed separately. Hypertrophy was assessed, in part, by calculating RV/LV+S. The lungs were also weighed.
Similar trends were observed on vessel muscularity based on histopathologic scoring. After staining tissue samples to detect αSMA/elastin, 100 pulmonary arterioles, between 10 μm and 50 μm in size, per animal were categorized as non-muscularized, partially muscularized, or completely muscularized. Pulmonary arterioles from vehicle treated rats were determined to be 62.3% completely muscularized, 36.4% partially muscularized, and 1.4% non-muscularized. […] Histopathological scoring of smooth muscle hypertrophy of pulmonary arterioles were also recorded as follows: 0 (normal), 1 (minimal), 2 (mild), 3 (moderate), or 4 (marked).

[2] = test system: Sugen Hypoxia model of PAH (semaxanib/hypoxia); experiment: Sugen Hypoxia rat model of PAH; type: in vivo; settings: 0 normal, 1 minimal, 2 mild, 3 moderate, 4 marked
Experimental: The effects of an ActRIIA-mFc fusion protein (ActRIIA-mFc homodimer as described in Example 1 and sildenafil (a phosphodiesterase-5 inhibitor approved for the treatment of PAH) were further examined the Sugen Hypoxia model of PAH. In this model, rats receive daily doses of semaxanib and are placed in a low oxygen environment (approximately 13% oxygen) to induce PAH 24 hours prior to start of therapy.
Rats were separated into different treatment groups (10 mice per group): 1) treatment with semaxanib (200 mg/kg administered s.c. as a single dose daily)/hypoxia and Tris buffered saline (administered i.p. as 1 ml/kg, every three days) (vehicle treatment group), 2) treatment with an ActRIIA-mFc polypeptide (10 mg/kg administered i.p. every three days) and semaxanib (200 mg/kg administered s.c. as a single dose daily)/hypoxia, 3) treatment with sildenafil (30 mg/kg administered orally twice daily) and semaxanib (200 mg/kg administered s.c. as a single dose daily)/hypoxia, and 4) control rats (Tris buffered saline administered i.p. as 1 ml/kg, every three days). Rats were treated for 28 days. Body weights were recorded prior to first dose on Day 1 and then weekly throughout the study.
On day 28, rats were anesthetized by an intraperitoneal injection of ketamine/xylazine (80/10 mg/kg). […] Hypertrophy was assessed, in part, by calculating RV/LV+S. The lungs were also weighed. […]

Substance: ActRIIA-mFc: extracellular domain of human ActRIIa fused to a mouse Fc domain with a minimal linker; homodimer
- smooth muscle hypertrophy of pulmonary arterioles, average histopathological score ([1]; 0 normal, 1 minimal, 2 mild, 3 moderate, 4 marked): 1.6 score
- improvement in body weight ([1]; 28 days, compared to monocrotaline treated rats, proteins 10 mg/kg i.p. every three days, sildenafil 30 mg/kg orally twice daily): did not show improvement
- smooth muscle hypertrophy of pulmonary arterioles, average histopathological score [2]: 1.4 score
